Laboratory results published in patent US12268694B2, “Combination pharmaceutical agents as RSV inhibitors” (Enanta Pharmaceuticals, Inc., priority 2017, dated 2025).

Each compound was assayed on genotype A, "Long" strain RSV (assay: RSV-A assay: CPE protection in HEp-2 cells, ATPlite readout). Conditions: human respiratory syncytial virus, HEp-2, read-out: Human RSV-A (“Long” strain) EC50.
Type: cell-based, human respiratory syncytial virus
From the text: HEp-2 cells, (originally derived from tumors grown in irradiated-cortisonised weanling rats that had been injected with epidermoid carcinoma tissue from a person's larynx, but later found to be indistinguishable from HeLa cells by PCR DNA analysis), were used for the culturing of genotype A, “Long” strain RSV. Flasks were inoculated with RSV and viral stocks were collected once cytopathic effect (CPE) was greater than 90%. Viral stocks in 25% sucrose media were snap frozen using liquid nitrogen to increase viral stability. Viral stock titers were quantified by tissue culture infectious dose 50% (TCID50) using 8,000 cells per well and 3-fold viral dilutions across a 96-well plate, cultured for 4 days. Viral stock titers were also quantified by a plaque forming unit assay, as described elsewhere.
Following extensive parameter testing, the final assay is run as follows: HEp-2 cells are seeded into the inner 60 wells of a 96-well plate at 8,000 cells per well in a volume of 50 μL using Growth Media (DMEM without phenol red, 1% L-Glut, 1% Penn/Strep, 1% nonessential amino acids, 10% heat-inactivated FBS). 2-fold serial dilutions of control and test compounds are added to the wells in duplicate in a total volume of 25 μL. Viral stock is then added to the wells at a multiplicity of infection (MOI) of 0.1 in a volume of 25 μL, bringing the total volume of each well to 100 μL. The MOI is calculated using the PFU/mL, or TCID50 if unavailable. Each 96-well plate has a control column of 6 wells with cells and virus but no compound (negative control, max CPE), a column with cells but no compound or virus (positive control, minimum CPE), and a column with no cells or virus or compound (background plate/reagent control). The control wells with cells but no virus are given an additional 25 μL of growth media containing an equal quantity of sucrose as those wells receiving the viral stock in order to keep consistent in media and volume conditions. The outer wells of the plate are filled with 125 μL of moat media (DMEM, 1% Penn/Strep) to act as a thermal and evaporative moat around the test wells. Following a 5-day incubation period, the plates are read using ATPlite (50 μL added per well), which quantifies the amount of ATP (a measure of cell health) present in each well. Assay plates are read using the Envision luminometer. In parallel, cytotoxicity is examined on an additional 96-well plate treated in an identical manner, but substituting the 25 μL of viral stock for 25 μL of growth media. […] EC50 ranges are as follows: A <0.4 μM; B 0.4-0.8 μM; C >0.8 μM and CC50 ranges are as follows: A >50 μM; B 10-50 μM; C <10 μM.

Question: For `CN1CCC(N2CCC[C@H]2c2nnc(NC3N=C(c4ccccc4)c4ccccc4NC3=O)o2)CC1` (stereo partly shown) [Example 228], which EC50 is on record?
Answer: > 0.8 µM

Question: For `COCCOc1ccccc1-c1nnc(NC2N=C(c3ccccc3)c3ccccc3NC2=O)o1` (stereo not shown) [Example 229], which EC50 is on record?
Answer: > 0.8 µM

Question: For `CC1(Nc2nnc(-c3ccc(F)cc3)o2)N=C(c2ccccc2)c2ccccc2NC1=O` (stereo not shown) [Example 230], which EC50 is on record?
Answer: > 0.8 µM

Question: With `O=C1Nc2ccccc2C(c2ccccc2)=NC1Nc1nnc(-c2ccc(-n3ccnc3)cc2)o1` (stereo not shown) [Example 231] as the compound, how does the EC50 read?
Answer: < 0.4 µM

Question: `O=C1Nc2ccccc2C(c2ccccc2)=NC1Nc1nnc(-c2ccc(-n3ccnc3)nc2)o1` (stereo not shown) [Example 232] was tested. Which EC50 did it give?
Answer: > 0.8 µM

Question: How did the EC50 turn out when `O=C1Nc2ccccc2C(c2ccccc2)=NC1Nc1nnc(-c2ccc(-n3cnnc3)cc2)o1` (stereo not shown) [Example 233] was run?
Answer: > 0.8 µM

Question: `CN(C)CCOc1ccccc1-c1nnc(NC2N=C(c3ccccc3)c3ccccc3NC2=O)o1` (stereo not shown) [Example 234] was tested. Which EC50 did it give?
Answer: > 0.8 µM

Question: For `COCCOc1ccc(-c2nnc(NC3N=C(c4ccccc4)c4ccccc4NC3=O)o2)cc1` (stereo not shown) [Example 236], which EC50 is on record?
Answer: > 0.8 µM

Question: For `CN1CCN(c2ncccc2-c2nnc(NC3N=C(c4ccccc4)c4ccccc4NC3=O)o2)CC1` (stereo not shown) [Example 237], which EC50 is on record?
Answer: > 0.8 µM

Question: With `CN[C@H](c1ccccc1)c1nnc(NC2N=C(c3ccccc3)c3ccccc3NC2=O)o1` (stereo partly shown) [Example 238] as the compound, how does the EC50 read?
Answer: > 0.8 µM

Question: For `O=C1Nc2ccccc2C(c2ccccc2)=NC1Nc1nnc(-c2ccccc2OC2CCOCC2)o1` (stereo not shown) [Example 239], which EC50 is on record?
Answer: > 0.8 µM

Question: How did the EC50 turn out when `O=C1Nc2ccccc2C(c2ccccc2)=NC1Nc1nnc(-c2ccccc2N2CCS(=O)(=O)CC2)o1` (stereo not shown) [Example 240] was run?
Answer: > 0.8 µM

Question: How did the EC50 turn out when `O=C1Nc2ccccc2C(c2ccccc2)=NC1Nc1nnc(-c2cccnc2N2CCCCC2)o1` (stereo not shown) [Example 241] was run?
Answer: > 0.8 µM

Question: `C[C@@H]1CN(c2ccc(-c3nnc(N[C@H]4N=C(c5ccccc5)c5ccccc5NC4=O)o3)c(Cl)c2)C[C@H](C)O1` [Example 243] was tested. Which EC50 did it give?
Answer: > 0.8 µM

Question: Which EC50 does the source give for `O=C1Nc2ccccc2C(c2ccccc2)=N[C@@H]1Nc1nnc(-c2ccc(N3C4CCC3COC4)cc2Cl)o1` [Example 244] here?
Answer: > 0.8 µM

Question: How did the EC50 turn out when `O=C1Nc2ccccc2C(c2ccccc2)=NC1Nc1nnc(-c2cccnc2N2CCCC(F)(F)C2)o1` (stereo not shown) [Example 246] was run?
Answer: > 0.8 µM

Question: For `CO[C@H]1CCN(c2ncccc2-c2nnc(NC3N=C(c4ccccc4)c4ccccc4NC3=O)o2)C1` (stereo partly shown) [Example 247], which EC50 is on record?
Answer: > 0.8 µM

Question: With `O=C1Nc2ccccc2C(c2ccccc2)=NC1Nc1nnc(-c2cccnc2N2C[C@@H]3C[C@H]2CO3)o1` (stereo partly shown) [Example 248] as the compound, how does the EC50 read?
Answer: > 0.8 µM

Question: For `COC1CCN(c2ncccc2-c2nnc(NC3N=C(c4ccccc4)c4ccccc4NC3=O)o2)CC1` (stereo not shown) [Example 254], which EC50 is on record?
Answer: > 0.8 µM

Question: For `O=C1Nc2ccccc2C(c2ccccc2)=NC1Nc1nnc(-c2cccnc2N2CCC(O)CC2)o1` (stereo not shown) [Example 255], which EC50 is on record?
Answer: > 0.8 µM

Question: For `O=C1Nc2ccccc2C(c2ccccc2)=NC1Nc1nnc(-c2cccnc2N2CCC(F)CC2)o1` (stereo not shown) [Example 256], which EC50 is on record?
Answer: > 0.8 µM

Question: With `COC1CN(c2ncccc2-c2nnc(NC3N=C(c4ccccc4)c4ccccc4NC3=O)o2)C1` (stereo not shown) [Example 258] as the compound, how does the EC50 read?
Answer: > 0.8 µM

Question: How did the EC50 turn out when `O=C1Nc2ccccc2C(c2ccccc2)=NC1Nc1nnc(-c2cccnc2N2CC(F)(F)C2)o1` (stereo not shown) [Example 259] was run?
Answer: > 0.8 µM

Question: For `N#CC1CCN(c2ncccc2-c2nnc(NC3N=C(c4ccccc4)c4ccccc4NC3=O)o2)CC1` (stereo not shown) [Example 260], which EC50 is on record?
Answer: > 0.8 µM

Question: How did the EC50 turn out when `C[C@H]1COCCN1c1ncccc1-c1nnc(NC2N=C(c3ccccc3)c3ccccc3NC2=O)o1` (stereo partly shown) [Example 261] was run?
Answer: > 0.8 µM

Question: `C[C@@H]1CN(c2ncccc2-c2nnc(NC3N=C(c4ccccc4)c4ccccc4NC3=O)o2)CCO1` (stereo partly shown) [Example 262] was tested. Which EC50 did it give?
Answer: > 0.8 µM

Question: How did the EC50 turn out when `O=C1Nc2ccccc2C(c2ccccc2)=NC1Nc1nnc(-c2cccnc2N2C[C@H]3C[C@@H]2CO3)o1` (stereo partly shown) [Example 264] was run?
Answer: > 0.8 µM

Question: With `O=C1Nc2ccccc2C(c2ccccc2)=NC1Nc1nnc(-c2cccnc2N2C3CCC2COC3)o1` (stereo not shown) [Example 265] as the compound, how does the EC50 read?
Answer: > 0.8 µM

Question: `O=C1Nc2ccccc2C(c2ccccc2)=NC1Nc1nnc(-c2cccnc2N2CC3CCC(C2)O3)o1` (stereo not shown) [Example 266] was tested. Which EC50 did it give?
Answer: 0.4 to 0.8 µM

Question: With `O=C1Nc2ccccc2C(c2ccccc2)=NC1Nc1nnc(-c2cccnc2N2C[C@H]3COC[C@H]3C2)o1` (stereo partly shown) [Example 267] as the compound, how does the EC50 read?
Answer: > 0.8 µM

Question: `O=C1Nc2ccccc2C(c2ccccc2)=NC1Nc1nnc(-c2cccnc2N2CCn3ncnc3C2)o1` (stereo not shown) [Example 270] was tested. Which EC50 did it give?
Answer: > 0.8 µM

Question: How did the EC50 turn out when `COC1CN(c2cc(C(F)(F)F)cnc2-c2nnc(N[C@H]3N=C(c4ccccc4)c4ccccc4NC3=O)o2)C1` [Example 271] was run?
Answer: > 0.8 µM

Question: For `O=C1Nc2ccccc2C(c2ccccc2)=NC1Nc1nnc(-c2ccc(-n3cncn3)cc2)o1` (stereo not shown) [Example 273], which EC50 is on record?
Answer: 0.4 to 0.8 µM

Question: With `N#CC1CN(c2ncccc2-c2nnc(NC3N=C(c4ccccc4)c4ccccc4NC3=O)o2)C1` (stereo not shown) [Example 274] as the compound, how does the EC50 read?
Answer: > 0.8 µM

Question: `O=C1Nc2ccccc2C(c2ccccc2)=N[C@@H]1Nc1nnc(-c2ccc(C(F)(F)F)nc2N2C3CCC2COC3)o1` [Example 275] was tested. Which EC50 did it give?
Answer: > 0.8 µM

Question: `Cc1ccc(-c2nnc(N[C@H]3N=C(c4ccccc4)c4ccccc4NC3=O)o2)c(N2CC3CCC(C2)O3)n1` [Example 279] was tested. Which EC50 did it give?
Answer: < 0.4 µM

Question: `Cc1ccc(-c2nnc(N[C@H]3N=C(c4ccccc4)c4ccccc4NC3=O)o2)c(N2C3CCC2COC3)n1` [Example 280] was tested. Which EC50 did it give?
Answer: < 0.4 µM

Question: `N#Cc1ccc(-c2nnc(N[C@H]3N=C(c4ccccc4)c4ccccc4NC3=O)o2)c(N2CC3CCC(C2)O3)c1` [Example 281] was tested. Which EC50 did it give?
Answer: < 0.4 µM

Question: `O=C1Nc2ccccc2C(c2ccccc2)=N[C@@H]1Nc1nnc(-c2ncc(C(F)(F)F)cc2-c2ccncc2)o1` [Example 282] was tested. Which EC50 did it give?
Answer: > 0.8 µM

Question: How did the EC50 turn out when `O=C1Nc2ccccc2C(c2ccccc2)=NC1Nc1nnc(-c2ccccc2-n2cccn2)o1` (stereo not shown) [Example 283] was run?
Answer: > 0.8 µM

Question: `C[C@@H]1CN(c2cc(F)ccc2-c2nnc(N[C@H]3N=C(c4ccccc4)c4ccccc4NC3=O)o2)C[C@H](C)O1` [Example 284] was tested. Which EC50 did it give?
Answer: > 0.8 µM

Question: `C[C@@H]1COCCN1c1cc(C#N)ccc1-c1nnc(N[C@H]2N=C(c3ccccc3)c3ccccc3NC2=O)o1` [Example 285] was tested. Which EC50 did it give?
Answer: < 0.4 µM

Question: How did the EC50 turn out when `Cc1ccc(-c2nnc(N[C@H]3N=C(c4ccccc4)c4ccccc4NC3=O)o2)c(N2CCOC[C@H]2C)n1` [Example 286] was run?
Answer: < 0.4 µM

Question: For `O=C1Nc2ccccc2C(c2ccccc2)=N[C@@H]1Nc1nnc(-c2ccc(F)cc2N2CC3CCC(C2)O3)o1` [Example 288], which EC50 is on record?
Answer: 0.4 to 0.8 µM

Question: `N#Cc1ccc(-c2nnc(N[C@H]3N=C(c4ccccc4)c4ccccc4NC3=O)o2)c(N2C3CCC2COC3)c1` [Example 289] was tested. Which EC50 did it give?
Answer: < 0.4 µM

Question: `O=C1Nc2ccccc2C(c2ccccc2)=N[C@@H]1Nc1nnc(-c2cnc(C(F)(F)F)nc2N2CC3CCC(C2)O3)o1` [Example 290] was tested. Which EC50 did it give?
Answer: > 0.8 µM

Question: `N#Cc1c[nH]c2cc(-c3nnc(N[C@H]4N=C(c5ccccc5)c5ccccc5NC4=O)o3)ccc12` [Example 291] was tested. Which EC50 did it give?
Answer: > 0.8 µM

Question: `O=C1Nc2ccccc2C(c2ccccc2)=N[C@@H]1Nc1nnc(-c2nnsc2N2CCOCC2)o1` [Example 292] was tested. Which EC50 did it give?
Answer: < 0.4 µM

Question: With `O=C1Nc2ccccc2C(c2ccccc2)=N[C@@H]1Nc1nnc(-c2ncc(C(F)(F)F)cc2C2CC2)o1` [Example 293] as the compound, how does the EC50 read?
Answer: > 0.8 µM

Question: For `C[C@@H]1COCCN1c1cc(C(F)(F)F)cnc1-c1nnc(N[C@H]2N=C(c3ccccc3)c3ccccc3NC2=O)o1` [Example 294], which EC50 is on record?
Answer: < 0.4 µM

Question: For `COc1ccc(-c2nnc(N[C@H]3N=C(c4ccccc4)c4ccccc4NC3=O)o2)c(N2CCOCC2)n1` [Example 295], which EC50 is on record?
Answer: < 0.4 µM

Question: Which EC50 does the source give for `CN1CCN(c2cc(C(F)(F)F)cnc2-c2nnc(N[C@H]3N=C(c4ccccc4)c4ccccc4NC3=O)o2)CC1=O` [Example 296] here?
Answer: > 0.8 µM
